Reference: article PMC11125453, “A Novel 2-Methoxyestradiol Derivative: Disrupting Mitosis Inhibiting Cell Motility and Inducing Apoptosis in HeLa Cells In Vitro” (Pharmaceutics, 2024)

How the values were obtained:
HeLa cells [1] = experiment: Boyden chamber invasion assay; type: cell-based, human; settings: 5.0 µM, 24 h
Description: Compound 4a’s capacity to inhibit tumour invasion was assessed using the Boyden chamber assay, a three-dimensional model, on a profoundly invasive HPV-18 positive cell line. The polyethylene terephthalate (PET) membrane (8 μm pore size) and the thin layer of the matrigel basement matrix in special Boyden chamber inserts (BioCoat™ Matrigel® Invasion Chambers, Corning Inc., Corning, NY, USA) were prehydrated (2 h, serum-free EMEM) and placed onto a 24-well plate. The cell suspension (50,000 cells/insert in 500 μL) prepared in the serum-free EMEM with sub-antiproliferative concentrations (1.0, 2.5, and 5.0 μM) of 4a was nested in the upper compartments. Untreated cells were used as controls, with the EMEM medium supplemented with 10% FBS, and served as a chemoattractant in the lower chambers. After 24 h of incubation, supernatants and non-invading cells were removed cautiously with a cotton swab. […] Subsequently, 4 images per chamber were taken with a Nikon Eclipse TS100 fluorescence microscope (Nikon Instruments Europe, Amstelveen, The Netherlands), and the number of invading cells were enumerated using ImageJ software (National Institutes of Health, Bethesda, MD, USA). The invasion rate was determined by comparing the number of invaded cells in the treated samples with the number of invaded cells in the untreated control samples.

NIH/3T3 cells [2] = tested on: NIH/3T3 cells; set-up: method as in PMID 35091086; settings: read-out: IC50 on non-cancerous mouse fibroblast (NIH/3T3) cells; cited from earlier work
HeLa cells [3] = experiment: Cell cycle analysis using flow cytometry; type: cell-based, human; settings: 18 h incubation; 1.25, 2.5, 5.0 and 10 µM
Description: Cell cycle analysis was performed to elucidate a possible mechanism of action of the compound 4a. Cells were seeded in a 12-well plate at a density of 120,000 cells per well and incubated overnight. […] The supernatant from each treatment was collected separately, and the cells were washed with PBS and detached using trypsin. The resulting supernatant containing the cells was centrifuged at 1300 rpm for 5 min. The cells were then washed with PBS and fixed with 70% ice-cold ethanol at −20 °C for 20 min. To stain the DNA content, the cells were treated with 300 µL of staining solution, which consisted of 10 µg/mL PI, 0.1% sodium citrate, 0.1% triton-X, and 10 µg/mL RNase-A, all dissolved in injectable water. The staining process was carried out in the dark for 30 min. The cells were subjected to analysis using a flow cytometer (CytoFLEX-V0-B4-RO, Beckman Coulter, Brea, CA, USA) with a minimum of 10,000 events per sample being evaluated during each analysis. The data obtained were processed using ModFit LT 3.3.11 software (Verity Software House, Topsham, ME, USA). Untreated cells were utilised as the control group. Apoptotic cells were identified as the hypodiploid (subG1) cell population. The cell cycle analysis experiments were conducted twice, with three parallel samples for each condition.

HeLa cells [4] = experiment: MTT assay for cell viability, 24 h; type: cell-based, human; settings: concentrations corresponding the IC50 of 4a
Description: (§1) The extent of the inhibition of cell proliferation by the test compound was determined using the MTT (3-(4,5-dimethylthiazol-2-yl)-2,5-diphenyltetrazolium bromide) assay. Exponentially growing HeLa cells were seeded into 96-well plates at a density of 1.0 × 10^4 cells per well in 100 µL of media and incubated for 24 h to facilitate cell attachment. Subsequently, the cells were treated with test compounds formulated in 100 µL of media at six different concentrations of compounds ranging, from 0.1 to 30 µmol. The control group received only media treatment. After 24 h of incubation, 22 µL of MTT solution (5 mg/mL in PBS; Duchefa Biochemie BV, Haarlem, The Netherlands) was added and incubated for 4 h at 37 °C in a humidified 5% CO2 environment. The medium was subsequently aspirated, and 100 µL of DMSO was added to dissolve the formazan crystals produced by the intact cell’s mitochondrial enzymes. The mixture was then mechanically shaken for 30 min. Absorbance measurements were taken at 545 nm using a microplate UV-VIS reader (SPECTRO star Nano, BMG Labtech GmbH, Offenburg, Germany), followed by the calculation of the percentage cell viability using the GraphPad Prism 5.01 (GraphPad Software, San Diego, CA, USA). All in vitro experiments were performed twice with five replicates. Stock solutions of the tested substances (10 mM) were prepared in DMSO.

tubulin = experiment: Cell-free tubulin polymerisation assay; type: biochemical
Description: To assess the impact of test compound 4a on the microtubular system, a cell-free tubulin polymerisation assay was conducted using a commercially available kit (Cytoskeleton Inc., Denver, CO, USA), largely in accordance with manufacturer’s instructions, though with some modifications. The assay was performed in a pre-heated 96-well plate, with each condition tested in two parallel wells. Two wells were assigned as the experimental control and received 10 µL of general tubulin buffer (GTB), while the next two wells were assigned as the positive control and received a similar volume of 10 µM paclitaxel. Various concentrations of the test compound (50, 150, 300, and 600 µM) were added in similar volumes, and the polymerisation reaction was initiated by adding 100 µL of tubulin to each well. Absorbance readings were measured every minute for 60 min at 340 nm, following a kinetic measurement protocol. A similar experiment was repeated with the absence of glycerol in the reaction mixture and in exclusion of 50, 150 µM of our test compound. […] The maximum rate of tubulin polymerisation (Vmax) was determined as the highest difference between a set of three absorbance values at any two consecutive intervals.

HeLa cells [5] = tested on: HeLa cells; set-up: method as in PMID 35091086; settings: HeLa cell line; cited from earlier work
HeLa cells [6] = experiment: Wound-healing assay; type: cell-based, human; settings: 5.0 µM
Description: Due to the significant contribution of cell motility to tumour metastasis, we performed a wound-healing assay, utilizing a 2D model, to explore the antimigratory potential of compound 4a on HeLa cells. Special silicon inserts (Ibidi GmbH, Gräfelfing, Germany) were utilised, with 50,000 cells per well implanted on 12-well plates in a standard EMEM medium supplemented with 10% FBS. Following overnight incubation, the inserts were carefully removed, and the confluent monolayers were washed with PBS. Cells were then treated with sub-antiproliferative concentrations (1.0, 2.5 and 5.0 µM) of compound 4a in the EMEM medium containing 2% FBS. Images were then captured at 0, 24, and 48 h post-treatment using a Nikon Eclipse TS100 fluorescence microscope (Nikon Instruments Europe, Amstelveen, The Netherlands). Untreated cells served as the control, and the rate of wound closure (the decrease in size of the gaps devoid of cells) was measured using ImageJ software v1.54 (National Institutes of Health, Bethesda, MD, USA).

NIH/3T3 cells [7] = experiment: Growth inhibition on non-cancerous mouse fibroblast cells, previous study; type: cell-based; settings: ratio of IC50 values of NIH/3T3 and HeLa
MCF7 cells = experiment: MTT assay, growth inhibition of MCF7, 72 h; type: cell-based; settings: Homo sapiens, 72 h incubation
T47D cells = experiment: MTT assay, growth inhibition of T47D, 72 h; type: cell-based; settings: Homo sapiens, 72 h incubation
Description: as §1, with “The medium was subsequently aspirated, and 100 µL of DMSO was added to dissolve the formazan crystals produced by the intact cell’s mitochondrial enzymes. The mixture was then mechanically shaken for 30 min.” left out, “All in vitro experiments were performed twice with five replicates. Stock solutions of the tested substances (10 mM) were prepared in DMSO.” left out
The MTT assay was conducted as described in Section 2.5, with the incubation time extended to 72 h. IC50 values were determined by fitting sigmoidal concentration–response curves using GraphPad Prism 9.5.1 (GraphPad Software, San Diego, CA, USA). […]

HeLa cells [8] = experiment: Hoechst 33258-propidium iodide fluorescent double staining; type: cell-based, human; settings: 1.0, 2.5, 5.0 and 10 μM, 48 h
Description: Fluorescence staining was conducted to observe the morphological changes induced by the apoptotic process in cells treated with the compound 4a. HeLa cell suspension was seeded into 6-well plates at a density of 150,000 cells per well and allowed to repose for 24 h before exposure to different concentrations of our test substance (1.0, 2.5, 5.0, and 10 μM) for 48 h. To distinguish apoptotic and necrotic cell populations, the cells were stained with lipophilic Hoechst 33258 (1 μg/mL, HO) and hydrophilic propidium iodide (3 μg/mL, PI) for 90 min at 37 °C in a CO2 incubator. Following the removal of the remaining dye-containing medium, a Nikon Eclipse TS100 fluorescence microscope (Nikon Instruments Europe, Amstelveen, The Netherlands) was used to capture at least 4 images per condition. The microscope was equipped with suitable optical blocks for Hoechst 33258 (excitation: 360/40 nm bandpass filter, emission: 460/50 nm bandpass filter, and 400 nm dichromatic mirror) and propidium iodide (excitation: 500/20 nm bandpass filter, emission: 520 nm long pass filter, and 515 nm dichromatic mirror). This technique enables differentiation between early apoptosis and secondary necrosis by examining the nuclear morphology and membrane integrity of cells. The HO dye solution readily permeates into the nuclei of all cells, resulting in a uniform blue staining in the nuclei of the viable cells. […]

ERα = target: T1, ERα (Homo sapiens, UniProt P03372); experiment: Estrogenic activity luciferase reporter assay in T47D-ERE-Luc^Neo; type: cell-based; settings: 24 h incubation, read-out: EC50, oestrogenic activity (transcriptional activity of oestrogen-responsive luciferase reporter)
T1 construct: T47D-ERE-Luc^Neo, an ERα-positive cell line, stably transfected with a luciferase reporter cassette; endogenous in cells; host or cells: T47D-ERE-Luc^Neo
T1 sequence (P03372 1-595): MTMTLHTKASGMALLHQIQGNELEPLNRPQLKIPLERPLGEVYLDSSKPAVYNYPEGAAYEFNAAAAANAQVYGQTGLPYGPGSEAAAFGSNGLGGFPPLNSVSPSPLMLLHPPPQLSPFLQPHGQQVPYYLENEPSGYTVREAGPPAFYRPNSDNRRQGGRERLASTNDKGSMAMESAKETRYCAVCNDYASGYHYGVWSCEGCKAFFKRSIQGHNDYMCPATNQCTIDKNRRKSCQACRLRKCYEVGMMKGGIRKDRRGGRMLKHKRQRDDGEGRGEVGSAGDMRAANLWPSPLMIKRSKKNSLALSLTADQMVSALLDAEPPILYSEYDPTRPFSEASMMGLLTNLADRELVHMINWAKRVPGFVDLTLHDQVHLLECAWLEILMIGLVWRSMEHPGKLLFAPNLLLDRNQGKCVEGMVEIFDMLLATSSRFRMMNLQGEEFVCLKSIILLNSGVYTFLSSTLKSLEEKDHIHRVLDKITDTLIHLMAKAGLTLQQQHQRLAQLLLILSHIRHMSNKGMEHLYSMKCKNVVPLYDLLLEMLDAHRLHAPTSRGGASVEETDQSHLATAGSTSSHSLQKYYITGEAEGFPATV
Description: The in vitro oestrogenic activity of our test compound was determined by utilizing the T47D-ERE-Luc^Neo, an ERα-positive cell line, stably transfected with a luciferase reporter cassette. On the first day of the experiment, cells were seeded onto 96-well microplates in a density of 50,000 cells/well. After 72 h of incubation, the medium was changed to phenol red-free RPMI, containing 10% charcoal-stripped FBS. This step was repeated for another four consecutive days to deplete the intracellular oestrogen content. […]. After 24 h of incubation, the supernatant was removed from the wells and the One-Glo™ firefly luciferase reagent was added according to the manufacturer’s instructions (Promega Corp., Madison, WI, USA). Following a 5 min incubation period, the luciferase enzyme activity was measured using a luminometer (FLUOstar OPTIMA, BMG Labtech GmbH, Ortenberg, Germany). Each concentration was assayed in triplicates, repeated twice. Relative luminescence units (RLU) were normalised to percentage values, and sigmoidal concentration–response curves were fitted to the data points using GraphPad Prism 9.5.1 (GraphPad Software, San Diego, CA, USA).

SMILES	decrease in number of invading cells (anti-invasive activity) vs control (HeLa cells [1])	IC50 (NIH/3T3 cells [2]) [µM]	effect on G2/M phase population (HeLa cells [3])	effect on hypodiploid sub-G1 population (HeLa cells [3])	cell viability change after 24 h incubation (HeLa cells [4])	concentration of maximum tubulin polymerisation effect (tubulin; absence of glycerol)	effect on tubulin polymerisation relative to the control (tubulin; all tested concentrations (50, 150, 300, 600 µM), presence or absence of glycerol)	IC50 (HeLa cells [5]) [µM]	reduction in the migratory capacity of HeLa cells relative to the control (HeLa cells [6]; 24 h of treatment) [%]	reduction in the migratory capacity of HeLa cells relative to the control (HeLa cells [6]; 48 h of treatment) [%]	selectivity index (SI) (NIH/3T3 cells [7])	IC50 (MCF7 cells) [µM]	IC50 (T47D cells) [µM]	nuclei emitting intense blue fluorescence (DNA condensation, early apoptosis) (HeLa cells [8])	EC50 (ERα) [µM]
CN(C)Cc1cc2c(cc1O)CC[C@@H]1[C@@H]2CC[C@]2(C)[C@@H](O)CC[C@@H]12 [Compound 4a, 2-[(dimethylamino)methyl]-oestradiol]	more than 95%	70.4	significant cell arrest at the G2/M phase	significant rise in the hypodiploid sub-G1 population	no significant alteration in cell viability	approximately 300 µM	significant increase in tubulin polymerisation	4.53	53.9	39.6	15.6	19.2	16.9	concentration-dependent escalation	0.653
COc1cc2c(cc1O)CC[C@@H]1[C@@H]2CC[C@]2(C)[C@@H](O)CC[C@@H]12 [Compound 2ME, 2-methoxyestradiol]	–	–	–	–	–	–	–	–	–	–	–	–	–	–	0.0111
